From patent publication US8637664B2, “Alkyl 4- [4- (5-oxo-2,3,5, 11a-tetrahydo-5H-pyrrolo [2, 1-c] [1,4] benzodiazepine-8-yloxy)-butyrylamino]-1H-pyrrole-2-carboxylate derivatives and related compounds for the treatment of a proliferative disease” (Spirogen SARL, priority 2005, dated 2014) come the findings set out here.

For this experiment, the system named is calf thymus DNA (CT-DNA). Kind of experiment: DNA thermal denaturation (melting) studies. The experiment is classed as binding. Particulars: CT-DNA 100 μM DNAp, compound 20 μM, 37 °C; for Induced ΔTm after incubation 0 hours: pH 7.00, 0 hours; for Induced ΔTm after incubation 4 hours: pH 7.00, 4 hours; for Induced ΔTm after incubation 18 hours: pH 7.00, 18 hours; for Induced ΔTm after incubation 72 hours: pH 7.00, 72 hours. The protocol: The PBD agents were subjected to DNA thermal melting (denaturation) studies (Gregson, S. J., et al., Journal of Medicinal Chemistry, 44(5), 737-748 (2001); Jones, G. B., et al., Anti-Cancer Drug Design, 5(3), 249-264 (1990); McConnaughie, A. W. and; Jenkins, T. C. Journal of Medicinal Chemistry, 38(18), 3488-3501 (1995)) using calf thymus DNA (CT-DNA, type-1, highly polymerized sodium salt; 42% G+C [Sigma]) at a fixed 100 μM (DNAp=50 μM bp) concentration, determined using an extinction coefficient of 6600 (M phosphate)^−1 cm^−1 at 260 nm (Manzini, G., et al., Nucleic Acids Research, 11(24), 8861-8876 (1983)). Solutions were prepared in pH 7.00±0.01 aqueous buffer containing 10 mM NaH2PO4/Na2HPO4 and 1 mM EDTA. Working solutions containing CT-DNA and the test compound (20 μM) were incubated at 37.0±0.1° C. for 0 to 18 hours using an external water bath. Samples were monitored at 260 nm using a Varian-Cary 400 Bio spectrophotometer fitted with a Peltier heating accessory. Heating was applied at a rate of 1° C./min in the 45 to 98° C. temperature range, with optical and temperature data sampling at 200 ms intervals. A separate experiment was carried out using buffer alone, and this baseline was subtracted from each DNA melting curve before data treatment. Optical data were imported into the Origin 5 program (MicroCal Inc., Northampton, Mass.) for analysis. DNA helix→coil transition temperatures (Tm) were determined at the midpoint of the normalized melting profiles using a published analytical procedure (Jones, G. B., et al., Anti-Cancer Drug Design, 5(3), 249-264 (1990)). Results are given in table 1 as the mean±standard deviation from at least three determinations. Ligand-induced alterations in DNA melting behaviour (ΔTm) are given by ΔTm=Tm(DNA+ligand)−Tm(DNA), where the Tm value determined for free CT-DNA is 67.82±0.06° C. (averaged from >90 runs). All PBD compounds were dissolved in HPLC-grade MeOH to give working solutions containing ≦0.6% v/v MeOH; Tm results were corrected for the effects of MeOH co-solvent by using a linear correction term.
The above method was also carried out on the compounds of example 2, with all compounds being incubated for up to 72 hours.

Consider `COC(=O)c1cc(NC(=O)c2csc(NC(=O)CCCOc3cc4c(cc3OC)C(=O)N3CCC[C@H]3C=N4)n2)cn1C` [Compound 55], for which the “Induced ΔTm after incubation 0 hours” value came out at 14.5 °C, the “Induced ΔTm after incubation 4 hours” value amounted to 15.2 °C, the “Induced ΔTm after incubation 18 hours” value came to 15.8 °C and the “Induced ΔTm after incubation 72 hours” value was 16.1 °C.

As for `COC(=O)c1cc(NC(=O)c2nc(NC(=O)CCCOc3cc4c(cc3OC)C(=O)N3CCC[C@H]3C=N4)cn2C)cn1C` [Compound 57, (11aS) Methyl 4-({4-[4-(7-Methoxy-5-oxo-2,3,5,11a-tetrahydro-5H-pyrrolo[2,1-c][1,4]benzodiazepine-8-yloxy)-butyrylamino]-1-methyl-1H-imidazole-2-carbonyl}-amino)-1-methyl-1H-pyrrole-2-carboxylate], the “Induced ΔTm after incubation 0 hours” value is 2.8 °C, the “Induced ΔTm after incubation 4 hours” value was determined as 3.0 °C, the “Induced ΔTm after incubation 18 hours” value stood at 3.1 °C and the “Induced ΔTm after incubation 72 hours” value was 3.2 °C.

As to `CCOC(=O)c1nc(NC(=O)c2nc(NC(=O)CCCOc3cc4c(cc3OC)C(=O)N3CCC[C@H]3C=N4)cn2C)cn1C` [Compound 59, (11aS) Ethyl 4-({4-[4-(7-Methoxy-5-oxo-2,3,5,11a-tetrahydro-5H-pyrrolo[2,1-c][1,4]benzodiazepine-8-yloxy)-butyrylamino]-1-methyl-1H-imidazole-2-carbonyl}-amino)-1-methyl-1H-imidazole-2-carboxylate], the “Induced ΔTm after incubation 0 hours” value was determined as 10.3 °C, the “Induced ΔTm after incubation 4 hours” value worked out at 10.9 °C, the “Induced ΔTm after incubation 18 hours” value worked out at 11.4 °C and the “Induced ΔTm after incubation 72 hours” value was 11.4 °C.

`CCOC(=O)c1csc(NC(=O)c2csc(NC(=O)CCCOc3cc4c(cc3OC)C(=O)N3CCC[C@H]3C=N4)n2)n1` [Compound 61, (11aS) Ethyl 2-({2-[4-(7-Methoxy-5-oxo-2,3,5,11a-tetrahydro-5H-pyrrolo[2,1-c][1,4]benzodiazepine-8-yloxy)-butyrylamino]-thiazole-4-carbonyl}-amino)-thiazole-4-carboxylate]: the “Induced ΔTm after incubation 0 hours” value came to 7.7 °C, the “Induced ΔTm after incubation 4 hours” value came out at 8.0 °C, the “Induced ΔTm after incubation 18 hours” value was 8.3 °C and the “Induced ΔTm after incubation 72 hours” value worked out at 8.4 °C.

In the case of `CCOC(=O)c1csc(NC(=O)c2cc(NC(=O)CCCOc3cc4c(cc3OC)C(=O)N3CCC[C@H]3C=N4)cn2C)n1` [Compound 63, (11aS) Ethyl 2-({4-[4-(7-Methoxy-5-oxo-2,3,5,11a-tetrahydro-5H-pyrrolo[2,1-c][1,4]benzodiazepine-8-yloxy)-butyrylamino]-1-methyl-1H-pyrrole-2-carbonyl}-amino)-thiazole-4-carboxylate], the “Induced ΔTm after incubation 0 hours” value is 9.3 °C, the “Induced ΔTm after incubation 4 hours” value came out at 9.6 °C, the “Induced ΔTm after incubation 18 hours” value turned out to be 10.2 °C and the “Induced ΔTm after incubation 72 hours” value came to 10.5 °C.

Regarding `CCOC(=O)c1nc(NC(=O)c2cc(NC(=O)CCCOc3cc4c(cc3OC)C(=O)N3CCC[C@H]3C=N4)cn2C)cn1C` [Compound 65, (11aS) Ethyl 4-({4-[4-(7-Methoxy-5-oxo-2,3,5,11a-tetrahydro-5H-pyrrolo[2,1-c][1,4]benzodiazepine-8-yloxy)-butyrylamino]-1-methyl-1H-pyrrole-2-carbonyl}-amino)-1-methyl-1H-imidazole-2-carboxylate], the “Induced ΔTm after incubation 0 hours” value came out at 10.0 °C, the “Induced ΔTm after incubation 4 hours” value was 10.7 °C, the “Induced ΔTm after incubation 18 hours” value is 11.2 °C and the “Induced ΔTm after incubation 72 hours” value was determined as 11.3 °C.

Consider `COC(=O)c1cc(NC(=O)c2nc(NC(=O)c3nc(NC(=O)CCCOc4cc5c(cc4OC)C(=O)N4CCC[C@H]4C=N5)cn3C)cn2C)cn1C` [Compound 75], for which the “Induced ΔTm after incubation 0 hours” value was found to be 14.3 °C, the “Induced ΔTm after incubation 4 hours” value stood at 15.0 °C, the “Induced ΔTm after incubation 18 hours” value came to 15.4 °C and the “Induced ΔTm after incubation 72 hours” value is 15.6 °C.
